SMILES | melting point
Cc1ccc(S(=O)(=O)NS(=O)(=O)N2CCC(N3CCC(Oc4ccc(Cl)c(Cl)c4)CC3)CC2)cc1.[Na] | 242 to 243 °C
Cc1c(Cl)ccc(OC2CCN(C3CCN(S(=O)(=O)NC(=O)c4ccccc4)CC3)CC2)c1Cl [Example 5A, N-Benzoyl-4-(2,4-dichloro-3-methylphenoxy)-[1,4′-bipiperidine)-1′-sulfonamide] | 223 °C
O=C(NC(=O)N1CCC(N2CCC(Oc3ccc(Cl)c(Cl)c3)CC2)CC1)c1ccccc1 [Example 7A, N-Benzoyl-4-(3,4-dichlorophenoxy)-[1,4′-bipiperidine]-1′-carboxamide] | 65 to 80 °C
O=C(NS(=O)(=O)N1CCC(N2CCC(Oc3ccc(Cl)c(Cl)c3)CC2)CC1)c1ccc(Cl)c(Cl)c1 [Example 8A, N-(3,4-Dichlorobenzoyl)-4-(3,4-dichlorophenoxy)-(1,4′-bipiperidine]-1′-sulfonamide] | 166 to 167 °C
O=C(NS(=O)(=O)N1CCC(N2CCC(Oc3ccc(Cl)c(Cl)c3)CC2)CC1)c1c[nH]c(=O)c2ccccc12 [Example 11A, 4-(3,4-Dichlorophenoxy)-N-[(1,2-dihydro-1-oxo-4-isoquinolinyl)carbonyl]-[1,4′-bipiperidine]-1′-sulfonamide] | 200 °C

— US7307090B2, “Piperidine derivatives useful as modulators of chemokine receptor activity” (AstraZeneca AB, priority 2001, dated 2007)
